Laboratory results reported in patent publication US20180217129A1, “A Method Of Assessing Protein Modification Status And Identifying Biomarkers Linked To Cell Signaling Pathways” (Queen Mary University of London, priority 2015, published 2018).
Where two headings read alike, the source gives them in different places.

Columns and labels:
off-targets (ChEMBL) = settings: cited from earlier work
[1] = system: off-target kinases (MRC database); settings: cited from earlier work
parental MCF7 cells = assay: Cell proliferation assay (cell counting), parental cells; assay type: cell-based, human; settings: 1 μM of inhibitor
Description: (§1) Parental MCF7, G1:3 and K1:3 cell-lines were seeded in 12-well plates at a density of approximately 80,000 cells·well^−1, in biological triplicate. After the indicated time period, cells were washed with PBS, trypsinized and counted using a Beckman Coulter Vi-CELL XR cell counter. Second-order polynomials where fitted to the data using the ggplot2 package (v0.9.3.1) within R (v3.0.0).

[2] = system: MCF7-G and MCF7-K resistant cells; assay: Cell proliferation assay (cell counting), resistant cells; assay type: cell-based, human; settings: resistant cell-lines (MCF7-G for GDC-0941, MCF7-K for KU-0063794), 1 μM of inhibitor
Description: MCF7 cells (identity confirmed by genotyping analysis) were routinely maintained in DMEM (supplemented with 10% fetal-bovine serum and 100 U·mL^−1 penicillin/streptomycin) at 37° C. in a humidified atmosphere at 5% CO2. Resistant MCF7 cell-lines, derived from the original parental cells, were obtained by gradually increasing the concentrations of GDC-0941 or KU-0063794 concentrations (starting at 100 nM up to a maximum of 1 μM) over a period of approximately six months. The resultant clones (MCF7-G1:G3 and MCF7-K1:K3) were then routinely maintained as above in the presence of either 1 μM GDC-0941 or KU-0063794 (in DMSO) for MCF7-G and MCF7-K cells, respectively.
as §1

MCF7 cells = assay: Growth factor stimulation phosphoproteomics (CTAM group dynamics, KSEA); assay type: cell-based, human; settings: stimulation for 5 min, relative to 0 minute control
Description: Cells were split and seeded at 4×10^5 cells·plate^−1, 72 hours prior to the experiment. The medium in each plate was replaced 24 hours prior to the experiment. Each experiment was performed in biological duplicate. For the network definition experiments, cells were treated with each of the inhibitors or vehicle (DMSO) for 1 hour (Table 1). For the growth factor stimulation experiments, cells were starved for 24h and were subsequently treated with either 50 ng·mL^−1 EGF or IGF for 0, 5, 10, 30, or 60 minutes. For the resistant cell-line experiments, no additional treatments were performed. […]
The abundance of each of the identified markers was monitored systematically using KSEA (kinase-substrate enrichment analysis), as described previously (1). […] The mean of the log2 fold-ratios (versus control) of the phosphorylation sites representing each CTAM group were then calculated alongside the standard deviation (δ) for each mean. The significance of enrichment was then determined using a Z-score based approach and expressed as P-values, using the following formula: Z=(Sm−μt)·m^1/2/δt; where Sm=mean of the CTAM group log2 fold-ratios; μt=mean of the total dataset log2 ratios; m=number of individual phosphopeptides within the CTAM group; and δt=standard deviation of the total dataset log2 ratios (vs control) (19). […]

## Nc1[nH]nc2nnc(-c3c(-c4ccccc4)nn4ccccc34)cc12 [ERK inhibitor II]
off-targets (ChEMBL)
  Off-targets from ChEMBL: MAPK14

## Oc1cccc(-c2nc(N3CCOCC3)c3oc4ncccc4c3n2)c1 [PI-103]
off-targets (ChEMBL)
  Off-targets from ChEMBL: mTOR, and DNA-PK, and Akt1

## COc1ccc(S(=O)(=O)N(CCO)c2ccccc2CN(C)C/C=C/c2ccc(Cl)cc2)cc1 [KN-93]
[1]; 10 μM
  Off-targets from MRC database (>50% inhibition at given concentration): TrkA and smMLCK

## CS(=O)(=O)N1CCN(Cc2cc3nc(-c4cccc5[nH]ncc45)nc(N4CCOCC4)c3s2)CC1 [GDC-0941]
Parental MCF7 cells
  proliferation in the presence of inhibitor: unable to do so
[2]
  proliferation in the presence of inhibitor: able to proliferate
[1]; 1 μM
  Off-targets from MRC database (>50% inhibition at given concentration): CLK2 (1 μM)

## O=c1[nH]c2ccccc2n1C1CCN(Cc2ccc(-c3nc4cc5[nH]cnc5cc4nc3-c3ccccc3)cc2)CC1 [Akt inhibitor VIII]
[1]; 1 μM
  Off-targets from MRC database (>50% inhibition at given concentration): CAMK1 (1 μM)

## CN(C)CCCn1cc(C2=C(c3c[nH]c4ccccc34)C(=O)NC2=O)c2ccccc21 [Bisindolylmaleimide-I]
off-targets (ChEMBL)
  Off-targets from ChEMBL: CDK4/CCND1, and GSK3β, and PIM1

## Cc1cncc2cccc(S(=O)(=O)N3CCCNC[C@@H]3C)c12 [H-1152]
off-targets (ChEMBL)
  Off-targets from ChEMBL: PKA

## C[C@@H](N)[C@H]1CC[C@H](C(=O)Nc2ccncc2)CC1 [Y-27632]
[1]; 1 μM
  Off-targets from MRC database (>50% inhibition at given concentration): PHK and MST2 and RSK2 and MSK1 and MNK1 and RSK1 and AMPK and PRK2
off-targets (ChEMBL)
  Off-targets from ChEMBL: PKCε

## CN([C@@H](Cc1ccc(OS(=O)(=O)c2cccc3cnccc23)cc1)C(=O)N1CCN(c2ccccc2)CC1)S(=O)(=O)c1cccc2cnccc12 [KN-62, 1-N,O-bis(5-isoquinolinesulfonyl)-N-methyl-L-tyrosyl-4-phenylpiperazin E]
[1]; 10 μM
  Off-targets from MRC database (>50% inhibition at given concentration): PRAK and CAMK1 and DYRK1A and Lck
off-targets (ChEMBL)
  Off-targets from ChEMBL: P2RX7

## IGF-1: Human recombinant IGF-1 (100-11) purchased from Peprotech
MCF7 cells
  EGFR-MEK CTAM group phosphorylation: significant, acute up-regulation

## Cn1c2ccccc2c2c3c(c4c5ccccc5n(CCC#N)c4c21)CNC3=O [Go-6976]
off-targets (ChEMBL)
  Off-targets from ChEMBL: PKD1

## COc1ccc(-c2ccc3c(N4CCOCC4)nc(N4C[C@@H](C)O[C@@H](C)C4)nc3n2)cc1CO [KU-0063794]
Parental MCF7 cells
  proliferation in the presence of inhibitor: unable to do so
[2]
  proliferation in the presence of inhibitor: able to proliferate

## C=CC(=O)Nc1ccc2ncnc(Nc3cccc(Br)c3)c2c1 [PD-168393]
off-targets (ChEMBL)
  Off-targets from ChEMBL: ERBB2/4, and BMX and BTK and BLK and JAK3

## N#CC(=C(/N)Sc1ccccc1N)/C(C#N)=C(\N)Sc1ccccc1N [U0126]
[1]; 10 μM
  Off-targets from MRC database (>50% inhibition at given concentration): MKK1 (10 μM)

## CCc1cncnc1N1CCN(Cc2nc3ccc(C(F)(F)F)cc3[nH]2)CC1 [PF-4708671]
[1]; 1 μM
  Off-targets from MRC database (>50% inhibition at given concentration): MSK1 and RSK1
